Measured values as given in patent US20250320213A1, “Nitrogen-Containing Heterocyclic Compounds” (Pfizer Inc., priority 2024, published 2025).
Counter-ions that a name gives are not always drawn. Like-named read-outs stand apart in the source and are kept apart here.

Key:
STAT6 = biological target: T1, STAT6 (Homo sapiens, UniProt P42226); experiment: STAT6 Reporter Luciferase Assay (IL-13 stimulated HaCaT keratinocyte NanoLuc reporter cells); type: cell-based; settings: read-out: Reporter EC50
T1 construct: stably transfected HaCaT keratinocyte cell line, which expresses NanoLuc luciferase reporter gene under the transcriptional control of the STAT6 responsive promoter; endogenous in cells; host or cells: HaCaT keratinocyte reporter cell line (stably transfected with a NanoLuc reporter)
T1 sequence (P42226 1-847): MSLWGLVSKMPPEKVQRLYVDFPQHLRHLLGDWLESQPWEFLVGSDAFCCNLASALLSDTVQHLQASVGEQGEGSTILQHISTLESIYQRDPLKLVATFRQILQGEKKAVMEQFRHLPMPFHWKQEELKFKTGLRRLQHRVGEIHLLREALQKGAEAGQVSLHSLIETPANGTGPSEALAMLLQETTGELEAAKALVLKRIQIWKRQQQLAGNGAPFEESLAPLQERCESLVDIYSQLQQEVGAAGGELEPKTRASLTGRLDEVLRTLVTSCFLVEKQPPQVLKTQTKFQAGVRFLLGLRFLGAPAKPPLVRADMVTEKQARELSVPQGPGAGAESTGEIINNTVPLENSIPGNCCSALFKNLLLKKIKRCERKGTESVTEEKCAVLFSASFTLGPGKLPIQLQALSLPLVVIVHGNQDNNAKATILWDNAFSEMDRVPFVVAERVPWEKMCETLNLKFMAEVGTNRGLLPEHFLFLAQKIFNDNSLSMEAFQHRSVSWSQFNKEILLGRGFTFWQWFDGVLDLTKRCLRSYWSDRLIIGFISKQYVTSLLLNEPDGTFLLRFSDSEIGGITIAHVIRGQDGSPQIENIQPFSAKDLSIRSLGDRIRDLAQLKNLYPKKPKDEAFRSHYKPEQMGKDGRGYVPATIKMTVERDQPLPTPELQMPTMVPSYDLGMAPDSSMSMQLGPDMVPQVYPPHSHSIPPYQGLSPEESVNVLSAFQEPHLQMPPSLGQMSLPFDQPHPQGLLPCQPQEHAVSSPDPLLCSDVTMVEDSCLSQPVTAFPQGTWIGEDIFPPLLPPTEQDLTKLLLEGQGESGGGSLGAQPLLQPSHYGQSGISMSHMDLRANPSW
Method in brief: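 HaCaT IL-13Ra2-promoter NanoLuc reporter; cpd 2 h 37 °C in DMEM/2% HI FBS; IL-13 0.12 nM final, 4 h; Nano-Glo luminescence.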

[1] = test system: CCL17 secretion in peripheral human whole blood; experiment: Human Whole Blood (HWB) CCL17 TR-FRET Assay (IL-13 stimulated CCL17 secretion); type: cell-based
Method in brief: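 IC50 comes from serum CCL17 measured by a TR-FRET sandwich assay (16 h at room temperature, 665/615 nm ratio). Beforehand, blood in sodium heparin was exposed to an 11-point, 3-fold compound series for 2 h at 37°C and then to 10 ng/mL IL-13 for 48 h.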

[2] = IL-13 stimulated HaCaT STAT6 NanoLuc reporter cells
[3] = Homo sapiens, 48 h, human whole blood, IL-13 stimulated
[4] = STAT6 NanoLuc luciferase reporter, IL-13 stimulated HaCaT keratinocyte cells
[5] = Homo sapiens, 48 h, inhibition of CCL17 secretion in human whole blood, 10 ng/mL IL13, 48 hours
[6] = Homo sapiens, 48 h, human whole blood, 10 ng/mL IL13, 48 hours

Row | Structure (SMILES) | EC50 (STAT6; [2]) [nM] | IC50 [1, 3] [nM] | EC50 (STAT6; [4]) [nM] | IC50 [1, 5] [nM] | further results
1 | CN(C)C(=O)Nc1ccc(CNC(=O)c2nn(CCC#N)c3c2CN(c2ccc(C(=O)N(C)C)cn2)CC3)cc1 [Example 308, 1-(2-cyanoethyl)-5-(5-(dimethylcarbamoyl)pyridin-2-yl)-N-(4-(3,3-dimethylureido)benzyl)-4,5,6,7-tetrahydro-1H-pyrazolo[4,3-c]pyridine-3-carboxamide] | 287 | 718 |  |  | 
2 | CN(C)C(=O)Nc1ccc(CNC(=O)c2nn(C3CC3)c3c2CN(c2ccc(-c4nccn4C)cn2)CC3)cc1 [Example 46, 1-cyclopropyl-N-(4-(3,3-dimethylureido)benzyl)-5-(5-(1-methyl-1H-imidazol-2-yl)pyridin-2-yl)-4,5,6,7-tetrahydro-1H-pyrazolo[4,3-c]pyridine-3-carboxamide] |  |  | 9 | 110 | 
3 | CC(C)n1nc(C(=O)NCc2ccc(NC(=O)N(C)C)nc2)c2c1[C@@H](C)CN(c1ccc(C(=O)N(C)C)cn1)C2 [Example 349, (S)-5-(5-(dimethylcarbamoyl)pyridin-2-yl)-N-((6-(3,3-dimethylureido)pyridin-3-yl)methyl)-1-isopropyl-7-methyl-4,5,6,7-tetrahydro-1H-pyrazolo[4,3-c]pyridine-3-carboxamide] | 2 | 11 |  |  | 
4 | CCn1nc(C(=O)NCc2ccc(-c3nc(C)c[nH]3)cc2)c2c1[C@@H](C)CN(c1ncc(C(=O)N(C)C)cn1)C2 [Example 397, (S)-5-(5-(dimethylcarbamoyl)pyrimidin-2-yl)-1-ethyl-7-methyl-N-(4-(4-methyl-1H-imidazol-2-yl)benzyl)-4,5,6,7-tetrahydro-1H-pyrazolo[4,3-c]pyridine-3-carboxamide] | 1 | 9 |  |  | 
5 | CN(C)C(=O)Nc1ccc(CNC(=O)c2nn(C3CCOC3)c3c2CN(c2ccc(C(=O)N(C)C)cn2)CC3)cc1 (racemic) [Example 90, rac-(R)-5-(5-(dimethylcarbamoyl)pyridin-2-yl)-N-(4-(3,3-dimethylureido)benzyl)-1-(tetrahydrofuran-3-yl)-4,5,6,7-tetrahydro-1H-pyrazolo[4,3-c]pyridine-3-carboxamide] |  |  | 25 | 67 | 
6 | CC1CN(c2ccc(-c3nccn3C)cn2)Cc2c(C(=O)NCc3ccc(NC(=O)N(C)C)cc3)nn(C)c21 (racemic) [Example 59, rac-(R)-N-(4-(3,3-dimethylureido)benzyl)-1,7-dimethyl-5-(5-(1-methyl-1H-imidazol-2-yl)pyridin-2-yl)-4,5,6,7-tetrahydro-1H-pyrazolo[4,3-c]pyridine-3-carboxamide] |  |  | 3 | 27 | 
7 | CC(C)n1nc(C(=O)NCc2ccc(-c3ncc[nH]3)cc2)c2c1[C@@H](C)CN(c1ncc(C(=O)N(C)C)cn1)C2 (single isomer, unassigned) [Example 335] | 1 | 5 |  |  | 
8 | CCn1nc(C(=O)NCc2ccc(NC(=O)N3CCN(C)CC3)cc2)c2c1[C@@H](C)CN(c1ccc(C(=O)N(C)C)cc1)C2 [Example 398, (S)-5-(4-(dimethylcarbamoyl)phenyl)-1-ethyl-7-methyl-N-(4-(4-methylpiperazine-1-carboxamido)benzyl)-4,5,6,7-tetrahydro-1H-pyrazolo[4,3-c]pyridine-3-carboxamide] | 0.3 | 7 |  |  | 
9 | CN(C)C(=O)Nc1ccc(CNC(=O)c2nn(C3COC3)c3c2CN(c2ccc(C(=O)N(C)C)cn2)CC3)cc1 [Example 94, 5-(5-(dimethylcarbamoyl)pyridin-2-yl)-N-(4-(3,3-dimethylureido)benzyl)-1-(oxetan-3-yl)-4,5,6,7-tetrahydro-1H-pyrazolo[4,3-c]pyridine-3-carboxamide] |  |  | 49 | 89 | 
10 | CN(C)C(=O)Nc1ccc(CNC(=O)c2c3c(nn2C2CC2)CCN(c2ccc(C(=O)N(C)C)cn2)C3)cc1 [Example 19, 2-cyclopropyl-5-(5-(dimethylcarbamoyl)pyridin-2-yl)-N-(4-(3,3-dimethylureido)benzyl)-4,5,6,7-tetrahydro-2H-pyrazolo[4,3-c]pyridine-3-carboxamide] |  |  | > 10000 | 3360 | 
11 | CC(C)n1nc(C(=O)NCc2ccc(NC(=O)N3CC(C)(O)C3)cc2)c2c1CCN(c1ccc(C(=O)N(C)C)cn1)C2 [Example 185, 5-(5-(dimethylcarbamoyl)pyridin-2-yl)-N-(4-(3-hydroxy-3-methylazetidine-1-carboxamido)benzyl)-1-isopropyl-4,5,6,7-tetrahydro-1H-pyrazolo[4,3-c]pyridine-3-carboxamide] | 24 | 83 |  |  | 
12 | C[C@@H]1CN(c2ccc(C(=O)N(C)C)cn2)Cc2c(C(=O)NCc3ccc(NC(=O)N(C)C)cc3)nn(C3CCC3)c21 (single isomer, unassigned) [Example 557] | 15 |  |  |  | IC50 [1, 6]: 204 nM
13 | CC(C)n1nc(C(=O)NCc2ccc(NC(=O)N3CC4(CCN(C)CC4)C3)c(F)c2)c2c1[C@@H](C)CN(c1ccc(-n3ccccc3=O)cn1)C2 [Example 632, (S)-N-(3-fluoro-4-(7-methyl-2,7-diazaspiro[3.5]nonane-2-carboxamido)benzyl)-1-isopropyl-7-methyl-5-(2-oxo-2H-[1,3′-bipyridin]-6′-yl)-4,5,6,7-tetrahydro-1H-pyrazolo[4,3-c]pyridine-3-carboxamide] | 5 |  |  |  | IC50 [1, 6]: 39 nM
14 | CCn1nc(C(=O)NCc2ccc(-c3ncc[nH]3)cc2)c2c1[C@@H](C)CN(c1ncc(C(=O)N(C)C)cn1)C2 [Example 301, (S)-N-(4-(1H-imidazol-2-yl)benzyl)-5-(5-(dimethylcarbamoyl)pyrimidin-2-yl)-1-ethyl-7-methyl-4,5,6,7-tetrahydro-1H-pyrazolo[4,3-c]pyridine-3-carboxamide] | 1 | 8 |  |  | 
15 | CC(C)n1nc(C(=O)NCc2ccc(NC(=O)N(C)C)cc2)c2c1[C@@H](C)CN(c1ccc(N3CCCC3=O)cn1)C2 [Example 530, (S)—N-(4-(3,3-Dimethylureido)benzyl)-1-isopropyl-7-methyl-5-(5-(2-oxopyrrolidin-1-yl)pyridin-2-yl)-4,5,6,7-tetrahydro-1H-pyrazolo[4,3-c]pyridine-3-carboxamide] | 0.2 |  |  |  | IC50 [1, 6]: 6 nM
16 | CC(NC(=O)c1nn(C(C)C)c2c1CN(c1ccc(C(=O)N(C)C)cn1)CC2)c1ccc(NC(=O)N(C)C)cc1 (racemic) [Example 81, rac-(R)-5-(5-(dimethylcarbamoyl)pyridin-2-yl)-N-(1-(4-(3,3-dimethylureido)phenyl)ethyl)-1-isopropyl-4,5,6,7-tetrahydro-1H-pyrazolo[4,3-c]pyridine-3-carboxamide] |  |  | 34 | 115 | 
17 | Cc1nc(C(=O)NCc2ccc(NC(=O)N(C)C)cc2)c2n1C(C)CN(c1ccc(C(=O)N(C)C)cn1)C2 (racemic) [Example 9, rac-(R)-7-(5-(Dimethylcarbamoyl)pyridin-2-yl)-N-(4-(3,3-dimethylureido)benzyl)-3,5-dimethyl-5,6,7,8-tetrahydroimidazo[1,5-a]pyrazine-1-carboxamide formate] |  |  | 15 |  | IC50 ([1]; inhibition of CCL17 secretion in human whole blood, 10 ng/mL IL13, 48 hours): 27 nM
18 | CCn1nc(C(=O)NCc2ccc(NC(=O)N(C)C)cc2)c2c1C(C(F)(F)F)CN(c1ncc(C(=O)N(C)C)cn1)C2 (racemic) [Example 460, rac-(R)-5-(5-(dimethylcarbamoyl)pyrimidin-2-yl)-N-(4-(3,3-dimethylureido)benzyl)-1-ethyl-7-(trifluoromethyl)-4,5,6,7-tetrahydro-1H-pyrazolo[4,3-c]pyridine-3-carboxamide] | 0.3 | 7 |  |  | 
19 | CCC1CN(c2ccc(C(=O)N(C)C)cn2)Cc2c(C(=O)NCc3ccc(NC(=O)N(C)C)cc3)nn(C(C)C)c21 (single isomer, unassigned) [Example 311, rel-(R or S)-5-(5-(dimethylcarbamoyl)pyridin-2-yl)-N-(4-(3,3-dimethylureido)benzyl)-7-ethyl-1-isopropyl-4,5,6,7-tetrahydro-1H-pyrazolo[4,3-c]pyridine-3-carboxamide] | 1 |  |  |  | IC50 ([1]; human whole blood, IL-13 stimulated, 48 hours): 11 nM
